Measurements published in patent US20230135729A1, “COMPOUND WITH ANTI-SPORE ACTIVITY AND PHARMACEUTICAL COMPOSITION THEREOF” (priority 2020, published 2023).
≈ marks a conversion by molar mass, not a printed value.

Columns and labels:
Format in all cases: cell-based
[1] = tested on: spores of ATCC BBA1870 strain; experiment: Inhibition of germination of C. difficile spores (MIC), strain ATCC BBA1870; settings: Clostridioides difficile, ATCCBBA1870STRAIN, 1 h; strain 1870; sodium taurocholate as germinant, BHIS medium, 37° C., OD580 for 60 min; read-out: MIC (minimum concentration that completely inhibits spore germination)
Procedure, shortened: (§1)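 Spores heat-activated for 30 min at 65° C and washed, then preincubated with compound (10 mM DMSO stock) in BHIS at 37° C. Germination was triggered with sodium taurocholate, and OD580 was read each minute for 60 min. Inhibition = 100% − germination rate, from final vs initial OD relative to germinant-only controls.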

[2] = tested on: spores of ATCC 630 strain; experiment: Inhibition of germination of C. difficile spores (MIC), strain ATCC 630; settings: Clostridioides difficile, ATCC630, 1 h; strain 630; sodium taurocholate as germinant, BHIS medium, 37° C., OD580 for 60 min; read-out: MIC (minimum concentration that completely inhibits spore germination)
Procedure, shortened: as §1

[3] = tested on: spores of ATCC 43255 strain; experiment: Inhibition of germination of C. difficile spores (MIC), strain ATCC 43255; settings: Clostridioides difficile, ATCC43255, 1 h; strain 43255; sodium taurocholate as germinant, BHIS medium, 37° C., OD580 for 60 min; read-out: MIC (minimum concentration that completely inhibits spore germination)
Procedure, shortened: as §1

## CC[C@@H](NC(=O)C[C@@H](C)[C@H]1CC[C@H]2[C@@H]3[C@H](O)CC4=CC(=O)C=C[C@]4(C)[C@H]3CC[C@]12C)c1ccc(Br)s1 [Compound I-159-2]
[1]
  MIC: 0.5 µM (≈ 0.287 µg/mL)
[2]
  MIC: 0.5 µM (≈ 0.287 µg/mL)
[3]
  MIC: 0.5 µM (≈ 0.287 µg/mL)

## CC(C)[C@@H](NC(=O)C[C@@H](C)[C@H]1CC[C@H]2[C@@H]3[C@H](O)CC4=CC(=O)C=C[C@]4(C)[C@H]3CC[C@]12C)c1ccc(Br)s1 [Compound I-160-2]
[1]
  MIC: 0.5 µM (≈ 0.294 µg/mL)
[2]
  MIC: 0.5 µM (≈ 0.294 µg/mL)
[3]
  MIC: 0.5 µM (≈ 0.294 µg/mL)

## CC[C@@H](NC(=O)C[C@@H](C)[C@H]1CC[C@H]2[C@@H]3[C@H](O)CC4=CC(=O)C=C[C@]4(C)[C@H]3CC[C@]12C)c1ccc(Cl)s1 [Compound I-161-2]
[1]
  MIC: 0.25 µM (≈ 0.133 µg/mL)
[2]
  MIC: 0.25 µM (≈ 0.133 µg/mL)
[3]
  MIC: 0.5 µM (≈ 0.265 µg/mL)

## CC(C)[C@@H](NC(=O)C[C@@H](C)[C@H]1CC[C@H]2[C@@H]3[C@H](O)CC4=CC(=O)C=C[C@]4(C)[C@H]3CC[C@]12C)c1ccc(Cl)s1 [Compound I-162-2]
[1]
  MIC: 0.5 µM (≈ 0.272 µg/mL)
[2]
  MIC: 0.5 µM (≈ 0.272 µg/mL)
[3]
  MIC: 0.5 µM (≈ 0.272 µg/mL)

## CC[C@@H](NC(=O)C[C@@H](C)[C@H]1CC[C@H]2[C@@H]3[C@@H](O)C[C@@H]4CC(=O)CC[C@]4(C)[C@H]3CC[C@]12C)c1ccc(Cl)s1 [Compound I-163]
[1]
  MIC: 32 µM (≈ 17.1 µg/mL)
[2]
  MIC: 32 µM (≈ 17.1 µg/mL)
[3]
  MIC: 32 µM (≈ 17.1 µg/mL)

## CC(C)[C@@H](NC(=O)C[C@@H](C)[C@H]1CC[C@H]2[C@@H]3[C@@H](O)C[C@@H]4CC(=O)CC[C@]4(C)[C@H]3CC[C@]12C)c1ccc(Cl)s1 [Compound I-164]
[1]
  MIC: 32 µM (≈ 17.5 µg/mL)
[2]
  MIC: 32 µM (≈ 17.5 µg/mL)
[3]
  MIC: 32 µM (≈ 17.5 µg/mL)

## CC[C@@H](NC(=O)C[C@@H](C)[C@H]1CC[C@H]2[C@@H]3[C@H](O)C[C@@H]4CC(=O)CC[C@]4(C)[C@H]3C[C@H](O)[C@]12C)c1ccc(Br)s1 [Compound I-165]
[1]
  MIC: 64 µM (≈ 38.1 µg/mL)
[2]
  MIC: 32 µM (≈ 19 µg/mL)
[3]
  MIC: 64 µM (≈ 38.1 µg/mL)

## CC(C)[C@@H](NC(=O)C[C@@H](C)[C@H]1CC[C@H]2[C@@H]3[C@H](O)C[C@@H]4CC(=O)CC[C@]4(C)[C@H]3C[C@H](O)[C@]12C)c1ccc(Br)s1 [Compound I-166]
[1]
  MIC: 64 µM (≈ 39 µg/mL)
[2]
  MIC: 32 µM (≈ 19.5 µg/mL)
[3]
  MIC: 32 µM (≈ 19.5 µg/mL)

## CC[C@@H](NC(=O)C[C@@H](C)[C@H]1CC[C@H]2[C@@H]3C(=O)C[C@@H]4C[C@H](OC)CC[C@]4(C)[C@H]3CC[C@]12C)c1ccc(Cl)s1 [Compound I-167]
[1]
  MIC: 256 µM (≈ 140 µg/mL)
[2]
  MIC: 128 µM (≈ 70.2 µg/mL)
[3]
  MIC: 128 µM (≈ 70.2 µg/mL)

## CO[C@@H]1CC[C@@]2(C)[C@H](CC(=O)[C@@H]3[C@@H]2CC[C@]2(C)[C@@H]([C@H](C)CC(=O)N[C@@H](c4ccc(Cl)s4)C(C)C)CC[C@@H]32)C1 [Compound I-168]
[1]
  MIC: 128 µM (≈ 72 µg/mL)
[2]
  MIC: 128 µM (≈ 72 µg/mL)
[3]
  MIC: 128 µM (≈ 72 µg/mL)

## CC[C@@H](NC(=O)C[C@@H](C)[C@H]1CC[C@H]2[C@@H]3[C@H](O)C[C@@H]4C[C@H](OC)CC[C@]4(C)[C@H]3CC[C@]12C)c1ccc(Cl)s1 [Compound I-169]
[1]
  MIC: 256 µM (≈ 141 µg/mL)
[2]
  MIC: 128 µM (≈ 70.4 µg/mL)
[3]
  MIC: 256 µM (≈ 141 µg/mL)

## CO[C@@H]1CC[C@@]2(C)[C@@H](C1)C[C@@H](O)[C@@H]1[C@@H]2CC[C@]2(C)[C@@H]([C@H](C)CC(=O)N[C@@H](c3ccc(Cl)s3)C(C)C)CC[C@@H]12 [Compound I-170]
[1]
  MIC: 128 µM (≈ 72.2 µg/mL)
[2]
  MIC: 128 µM (≈ 72.2 µg/mL)
[3]
  MIC: 128 µM (≈ 72.2 µg/mL)

## CC[C@@H](NC(=O)C[C@@H](C)[C@H]1CC[C@H]2[C@@H]3[C@H](N)C[C@@H]4C[C@H](O)CC[C@]4(C)[C@H]3CC[C@]12C)c1ccc(Cl)s1 [Compound I-171]
[1]
  MIC: 32 µM (≈ 17.1 µg/mL)
[2]
  MIC: 32 µM (≈ 17.1 µg/mL)
[3]
  MIC: 32 µM (≈ 17.1 µg/mL)

## CC[C@@H](NC(=O)C[C@@H](C)[C@H]1CC[C@H]2[C@@H]3[C@H](N)C[C@@H]4CC(=O)CC[C@]4(C)[C@H]3CC[C@]12C)c1ccc(Cl)s1 [Compound I-172]
[1]
  MIC: 32 µM (≈ 17.1 µg/mL)
[2]
  MIC: 32 µM (≈ 17.1 µg/mL)
[3]
  MIC: 32 µM (≈ 17.1 µg/mL)

## CC(C)[C@@H](NC(=O)C[C@@H](C)[C@H]1CC[C@H]2[C@@H]3[C@H](N)C[C@@H]4C[C@H](O)CC[C@]4(C)[C@H]3CC[C@]12C)c1ccc(Cl)s1 [Compound I-173]
[1]
  MIC: 32 µM (≈ 17.6 µg/mL)
[2]
  MIC: 16 µM (≈ 8.79 µg/mL)
[3]
  MIC: 16 µM (≈ 8.79 µg/mL)

## CC(C)[C@@H](NC(=O)C[C@@H](C)[C@H]1CC[C@H]2[C@@H]3[C@H](N)C[C@@H]4CC(=O)CC[C@]4(C)[C@H]3CC[C@]12C)c1ccc(Cl)s1 [Compound I-174]
[1]
  MIC: 32 µM (≈ 17.5 µg/mL)
[2]
  MIC: 32 µM (≈ 17.5 µg/mL)
[3]
  MIC: 32 µM (≈ 17.5 µg/mL)

## CC[C@@H](NC(=O)C[C@@H](C)[C@H]1CC[C@H]2[C@@H]3[C@H](OC(C)=O)C[C@@H]4CC(=O)CC[C@]4(C)[C@H]3CC[C@]12C)c1ccc(Cl)s1 [Compound I-175]
[1]
  MIC: 1 µM (≈ 0.576 µg/mL)
[2]
  MIC: 0.5 µM (≈ 0.288 µg/mL)
[3]
  MIC: 1 µM (≈ 0.576 µg/mL)

## CC[C@@H](NC(=O)C[C@@H](C)[C@H]1CC[C@H]2[C@@H]3[C@H](OC(C)=O)C[C@@H]4CC(=O)CC[C@]4(C)[C@H]3CC[C@]12C)c1ccc(Br)s1 [Compound I-176]
[1]
  MIC: 0.5 µM (≈ 0.31 µg/mL)
[2]
  MIC: 0.5 µM (≈ 0.31 µg/mL)
[3]
  MIC: 0.5 µM (≈ 0.31 µg/mL)

## CC(=O)O[C@@H]1C[C@@H]2CC(=O)CC[C@]2(C)[C@H]2CC[C@]3(C)[C@@H]([C@H](C)CC(=O)N[C@@H](c4ccc(Cl)s4)C(C)C)CC[C@H]3[C@H]12 [Compound I-177]
[1]
  MIC: 0.5 µM (≈ 0.295 µg/mL)
[2]
  MIC: 0.5 µM (≈ 0.295 µg/mL)
[3]
  MIC: 1 µM (≈ 0.59 µg/mL)

## CC(=O)O[C@@H]1C[C@@H]2CC(=O)CC[C@]2(C)[C@H]2CC[C@]3(C)[C@@H]([C@H](C)CC(=O)N[C@@H](c4ccc(Br)s4)C(C)C)CC[C@H]3[C@H]12 [Compound I-178]
[1]
  MIC: 1 µM (≈ 0.635 µg/mL)
[2]
  MIC: 0.5 µM (≈ 0.317 µg/mL)
[3]
  MIC: 0.5 µM (≈ 0.317 µg/mL)

## CC[C@@H](NC(=O)C[C@@H](C)[C@H]1CC[C@H]2[C@@H]3[C@H](OC(=O)CCC(=O)O)C[C@@H]4CC(=O)CC[C@]4(C)[C@H]3CC[C@]12C)c1ccc(Cl)s1 [Compound I-179]
[1]
  MIC: 2 µM (≈ 1.27 µg/mL)
[2]
  MIC: 2 µM (≈ 1.27 µg/mL)
[3]
  MIC: 2 µM (≈ 1.27 µg/mL)

## CC[C@@H](NC(=O)C[C@@H](C)[C@H]1CC[C@H]2[C@@H]3[C@H](OC(=O)CCC(=O)O)C[C@@H]4CC(=O)CC[C@]4(C)[C@H]3CC[C@]12C)c1ccc(Br)s1 [Compound I-180]
[1]
  MIC: 2 µM (≈ 1.36 µg/mL)
[2]
  MIC: 1 µM (≈ 0.679 µg/mL)
[3]
  MIC: 2 µM (≈ 1.36 µg/mL)

## CC(C)[C@@H](NC(=O)C[C@@H](C)[C@H]1CC[C@H]2[C@@H]3[C@H](OC(=O)CCC(=O)O)C[C@@H]4CC(=O)CC[C@]4(C)[C@H]3CC[C@]12C)c1ccc(Cl)s1 [Compound I-181]
[1]
  MIC: 2 µM (≈ 1.3 µg/mL)
[2]
  MIC: 2 µM (≈ 1.3 µg/mL)
[3]
  MIC: 2 µM (≈ 1.3 µg/mL)

## CC(C)[C@@H](NC(=O)C[C@@H](C)[C@H]1CC[C@H]2[C@@H]3[C@H](OC(=O)CCC(=O)O)C[C@@H]4CC(=O)CC[C@]4(C)[C@H]3CC[C@]12C)c1ccc(Br)s1 [Compound I-182]
[1]
  MIC: 2 µM (≈ 1.39 µg/mL)
[2]
  MIC: 2 µM (≈ 1.39 µg/mL)
[3]
  MIC: 2 µM (≈ 1.39 µg/mL)

## CCCCCCCC(=O)O[C@@H]1C[C@@H]2CC(=O)CC[C@]2(C)[C@H]2CC[C@]3(C)[C@@H]([C@H](C)CC(=O)N[C@H](CC)c4ccc(Cl)s4)CC[C@H]3[C@H]12 [Compound I-183]
[1]
  MIC: 256 µM (≈ 169 µg/mL)
[2]
  MIC: 128 µM (≈ 84.5 µg/mL)
[3]
  MIC: 128 µM (≈ 84.5 µg/mL)
